Tests used:
[1] = target: Human immunodeficiency virus type 1 reverse transcriptase (Human immunodeficiency virus 1) (UniProt Q72547); assay: Inhibition of wild type HIV1 reverse transcriptase
[2] = test system: Human immunodeficiency virus 1; assay: Antiviral activity against drug-resistant HIV1 with reverse transcriptase K103N mutant infected in human MT4 cells assessed as virus-induced cell death by MTT method; format: functional; conditions: Human immunodeficiency virus 1, MT4; read-out: ED50 (the source's name)
[3] = test system: Human immunodeficiency virus 1; assay: Antiviral activity against drug-resistant HIV1 with reverse transcriptase Y181C mutant infected in human MT4 cells assessed as virus-induced cell death by MTT method; format: functional; conditions: Human immunodeficiency virus 1, MT4; read-out: ED50 (the source's name)
[4] = test system: Human immunodeficiency virus 1; assay: Antiviral activity against wild type HIV1 NL4-3 infected in human MT4 cells assessed as virus-induced cell death by MTT method; format: functional; conditions: Human immunodeficiency virus 1, NL4-3, MT4; read-out: ED50 (the source's name)
[5] = Ratio of ED50 for drug resistant HIV1 with reverse transcriptase K103N mutant to wild type HIV1 NL4-3; format: functional
[6] = Ratio of ED50 for drug resistant HIV1 with reverse transcriptase Y181C mutant to wild type HIV1 NL4-3; format: functional

**Q.** Which ID50 [1] does the source give for `CSc1nc(N)c(C)c(/C(=N\O)c2ccccc2)n1` here?
**A.** The ID50 was over 20 µM.

**Q.** And the EC50 [2]?
**A.** Its EC50 is over 25 µM.

**Q.** And the EC50 [3]?
**A.** Its EC50 is over 25 µM.

**Q.** What about the EC50 [4] of the same compound?
**A.** Its EC50 is 10.5 µM.

**Q.** With `CSc1nc(N)c(C)c(C(=O)CCc2ccccc2)n1` as the compound, how does the ID50 [1] read?
**A.** Its ID50 is over 20 µM.

**Q.** And the EC50 [2]?
**A.** The EC50 was over 25 µM.

**Q.** And the EC50 [3]?
**A.** Its EC50 is over 25 µM.

**Q.** What about the EC50 [4] of the same compound?
**A.** The EC50 was over 25 µM.

**Q.** Which ID50 [1] does the source give for `CSc1nc(N)c(C)c(C(=O)Cc2ccccc2)n1` here?
**A.** The ID50 was over 20 µM.

**Q.** And the EC50 [2]?
**A.** Its EC50 is over 25 µM.

**Q.** And the EC50 [3]?
**A.** The EC50 was over 25 µM.

**Q.** And the EC50 [4]?
**A.** Its EC50 is over 25 µM.

**Q.** For `O=C1Nc2ccc(Cl)cc2[C@@](C#CC2CC2)(C(F)(F)F)O1` [EFAVIRENZ], which EC50 [2] is on record?
**A.** The EC50 was 0.133 µM.

**Q.** What about the EC50 [3] of the same compound?
**A.** Its EC50 is 0.008 µM.

**Q.** What does the source list for `COc1ccc(CSc2nc(Cc3c(Cl)cccc3Cl)c(C)c(=O)[nH]2)cc1`?
**A.** EC50 [2]: 4.7 µM; EC50 [4]: 0.007 µM; Ratio EC50 [5]: 671

**Q.** Which results are given for `Cc1ccnc2c1NC(=O)c1cccnc1N2C1CC1` [NEVIRAPINE]?
**A.** EC50 [2]: 0.68 µM; EC50 [3]: > 2 µM; EC50 [4]: 0.04 µM; Ratio EC50 [5]: 17

**Q.** For `Cc1c(N)nc(S(C)(=O)=O)nc1C(=O)c1ccccc1`, which Ratio EC50 [6] is on record?
**A.** The Ratio EC50 was 23.

**Q.** What about the ID50 [1] of the same compound?
**A.** Its ID50 is 16 µM.

**Q.** What about the EC50 [2] of the same compound?
**A.** Its EC50 is 19.1 µM.

**Q.** And the EC50 [3]?
**A.** Its EC50 is 10.4 µM.

**Q.** What about the EC50 [4] of the same compound?
**A.** The EC50 was 0.44 µM.

**Q.** And the Ratio EC50 [5]?
**A.** Its Ratio EC50 is 43.

**Q.** For `CSc1nc(N)c(C)c(C(=O)c2ccccc2)n1`, which Ratio EC50 [6] is on record?
**A.** Its Ratio EC50 is 28.

**Q.** What about the ID50 [1] of the same compound?
**A.** Its ID50 is 1.9 µM.

**Q.** And the EC50 [2]?
**A.** The EC50 was 1.67 µM.

**Q.** What about the EC50 [3] of the same compound?
**A.** The EC50 was 1.71 µM.

**Q.** What about the EC50 [4] of the same compound?
**A.** The EC50 was 0.06 µM.

**Q.** And the Ratio EC50 [5]?
**A.** Its Ratio EC50 is 28.

**Q.** Which ID50 [1] does the source give for `CSc1nc(N)c(C)c(C(=O)c2cccc3ccccc23)n1` here?
**A.** The ID50 was 2.7 µM.

**Q.** And the EC50 [2]?
**A.** Its EC50 is over 19.4 µM.

**Q.** What about the EC50 [3] of the same compound?
**A.** Its EC50 is over 19.4 µM.

**Q.** What about the EC50 [4] of the same compound?
**A.** The EC50 was over 19.4 µM.

**Q.** What does the source list for `CSc1nc(N)c(C)c(C(Cl)c2ccccc2)n1` (centres undefined)?
**A.** ID50 [1]: > 20 µM; EC50 [2]: > 25 µM; EC50 [3]: > 25 µM; EC50 [4]: 12 µM

**Q.** What does the source list for `CNc1nc(N)c(C)c(C(=O)c2ccccc2)n1`?
**A.** ID50 [1]: > 20 µM; EC50 [2]: > 25 µM; EC50 [3]: > 25 µM; EC50 [4]: 3.4 µM

**Q.** For `CSc1nc(N)c(C)c(C(O)c2ccccc2)n1` (centres undefined), which ID50 [1] is on record?
**A.** The ID50 was 7.7 µM.

**Q.** What about the EC50 [2] of the same compound?
**A.** The EC50 was over 25 µM.

**Q.** And the EC50 [3]?
**A.** The EC50 was over 25 µM.

**Q.** And the EC50 [4]?
**A.** The EC50 was over 25 µM.

**Q.** Which results are given for `CSc1nc(N)c(C)c(C(=O)c2cccc(F)c2)n1`?
**A.** Ratio EC50 [6]: 23; ID50 [1]: 0.2 µM; EC50 [2]: 0.695 µM; EC50 [3]: 0.779 µM; EC50 [4]: 0.034 µM; Ratio EC50 [5]: 20

**Q.** What does the source list for `CSc1nc(N)c(C)c(C(F)c2ccccc2)n1` (centres undefined)?
**A.** ID50 [1]: > 20 µM; EC50 [2]: > 25 µM; EC50 [3]: > 25 µM; EC50 [4]: > 25 µM
